Five compounds from PubChem BioAssay (NCI) can be followed below.

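How tested: cells in 96-well plates exposed to compound for 48 hours at five concentrations. The concentration for 50% growth inhibition is given as GI50. Definition used: TGI = concentration required for complete inhibition of growth.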

Among the test systems are A498 renal; ACHN renal; BT-549 breast; CCRF-CEM leukemia; COLO 205 colon; HCT-116 colon; HT29 colon; NCI/ADR-RES ovarian; OVCAR-5 ovarian; UACC-62 melanoma.
Holding throughout (experiment): growth of human tumour cells (NCI), 48 h

Consider `OCc1cn(Cc2cccc(Cl)c2)c2ccccc12`, for which the GI50 in the assay with A498 renal was 0.0142 µM; in the assay on ACHN renal it was 5.63 µM; in the assay on BT-549 breast, 6.75 µM; in the assay on CCRF-CEM leukemia it was 11 µM; with COLO 205 colon, 0.432 µM; in the assay on HCT-116 colon, under 0.0163 µM. For the same compound, the GI50 in the assay on HT29 colon is 1.83 µM; in the assay with NCI/ADR-RES ovarian, 13.7 µM; with OVCAR-5 ovarian, 2.63 µM; with UACC-62 melanoma, under 0.0199 µM. Moreover, the TGI in the assay with A498 renal is 0.0305 µM; with ACHN renal, 69.2 µM; in the assay with BT-549 breast, 23.1 µM; in the assay with CCRF-CEM leukemia, over 69.8 µM; in the assay on COLO 205 colon, 20.3 µM; with HCT-116 colon it was 13.5 µM. In addition, the TGI in the assay on HT29 colon came to 34.3 µM; in the assay with NCI/ADR-RES ovarian it was 62 µM; in the assay with OVCAR-5 ovarian, 8.89 µM; with UACC-62 melanoma, 1.5 µM.
Turning to `c1ccc(Cc2nc3ccc(Nc4ncnc5ccccc45)cc3[nH]2)cc1`, the GI50 was 9.41 µM with A498 renal; 14.8 µM in the assay with ACHN renal; over 25 µM with BT-549 breast; over 25 µM in the assay with CCRF-CEM leukemia; over 25 µM with COLO 205 colon; over 25 µM in the assay with HCT-116 colon. In addition, the GI50 in the assay with HT29 colon was 9.07 µM; in the assay on NCI/ADR-RES ovarian it was over 25 µM; with OVCAR-5 ovarian, 17.8 µM; in the assay on UACC-62 melanoma, over 25 µM. The TGI with A498 renal, with ACHN renal, in the assay with BT-549 breast, with CCRF-CEM leukemia, in the assay on COLO 205 colon and with HCT-116 colon was over 25 µM each time. In addition, the TGI in the assay on HT29 colon, in the assay with NCI/ADR-RES ovarian, with OVCAR-5 ovarian and with UACC-62 melanoma was over 25 µM in each case.
Regarding `COP(=O)(OC)C(NC(c1ccccc1)c1ccccc1)c1ccc2c(c1)OCO2` (stereo not drawn), the GI50 in the assay with A498 renal was 22.8 µM; in the assay with ACHN renal, 29.1 µM; in the assay with BT-549 breast, 20.6 µM; in the assay with CCRF-CEM leukemia, 2.26 µM; in the assay on COLO 205 colon, 52.2 µM; with HCT-116 colon it was 16.3 µM. In addition, the GI50 is 19.9 µM in the assay on HT29 colon, 30.3 µM in the assay with NCI/ADR-RES ovarian, 54.6 µM in the assay on OVCAR-5 ovarian and 16 µM in the assay on UACC-62 melanoma. Besides, the TGI with A498 renal is 44.2 µM; in the assay with ACHN renal, over 100 µM; in the assay on BT-549 breast it was 38.8 µM; in the assay with CCRF-CEM leukemia it was 29.7 µM; in the assay on COLO 205 colon it was over 100 µM; in the assay with HCT-116 colon it was 35.3 µM. Also, the TGI in the assay with HT29 colon was 51.5 µM; in the assay with NCI/ADR-RES ovarian, over 100 µM; in the assay with OVCAR-5 ovarian, over 100 µM; in the assay on UACC-62 melanoma, 32.2 µM.
Consider `CCCC[C@H]1C(=O)O[C@H](C)[C@H](NC(=O)c2cccc(NC=O)c2O)C(=O)O[C@@H](C)[C@@H]1OC(=O)CC(C)C`, for which the TGI with A498 renal came out at 30 µM; with ACHN renal, 36.1 µM; in the assay with BT-549 breast, 36 µM; in the assay on CCRF-CEM leukemia it was 6.29 µM; with COLO 205 colon, 31.6 µM; in the assay on HCT-116 colon, 19.5 µM. The TGI in the assay on HT29 colon was found to be 27.4 µM; in the assay with NCI/ADR-RES ovarian, 65.6 µM; in the assay on OVCAR-5 ovarian, 39 µM; in the assay with UACC-62 melanoma it was 22.1 µM.
For `C(=N\Nc1ccccn1)/c1ccccn1`, the GI50 in the assay with A498 renal was 0.273 µM; in the assay on ACHN renal, 0.294 µM; in the assay on BT-549 breast, 1.62 µM; with CCRF-CEM leukemia it was 0.446 µM; in the assay with COLO 205 colon, 0.356 µM; in the assay on HCT-116 colon, 0.303 µM. The GI50 with HT29 colon is 0.563 µM; with NCI/ADR-RES ovarian, 0.359 µM; with OVCAR-5 ovarian, 0.588 µM; in the assay with UACC-62 melanoma, 0.327 µM. Besides, the TGI is over 100 µM with BT-549 breast; over 100 µM with CCRF-CEM leukemia; over 100 µM with COLO 205 colon; over 100 µM in the assay with HCT-116 colon; over 100 µM with HT29 colon; over 39.7 µM in the assay with NCI/ADR-RES ovarian. The TGI was over 100 µM in the assay on OVCAR-5 ovarian and 2.28 µM in the assay on UACC-62 melanoma.
